pIC50: −log10 of the molar value. Like-named read-outs stand apart in the source and are kept apart here.
Legend:
Type in all cases: cell-based
Human neutrophils [1] = test: Inhibition of ROS production in human neutrophils (isoluminol chemiluminescence); conditions: Homo sapiens, Neutrophil, fMLP+TNF-α stimulated PMN
In short: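 Extracellular ROS measured as isoluminol-amplified chemiluminescence following 1 μM fMLP activation on fibrinogen-coated plates, readings every 25 sec over 250 sec minus HBSS/isoluminol background. Beforehand, cells were treated with compounds at 0.1, 0.3, 1, 3 or 10 μM (30 min, 37° C) and TNF-α (20 ng/ml, 10 min); duplicate or triplicate.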

Human neutrophils [2] = test: Neutrophil adhesion under static conditions; conditions: fMLP-stimulated adhesion to fibrinogen; method: 40 μM and 80 μM, concentration of the value not stated
In short: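 Donor buffy-coat neutrophils (3×10^6/ml, PBS with Ca/Mg, 10% FCS, pH 7.2) preincubated 30 min at 37° C with 40 μM or 80 μM compound, then stimulated 1 min at 37° C with 1 nM fMLP on fibrinogen-coated glass. Adherent cells fixed and counted by computer; mean ± SD, unpaired t-test.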

GM-CSF = test: Cytokine release after LPS induction on human whole blood: GM-CSF
Method: (§1) Aim of this in vitro method is to assess compounds effects on release of a panel of cytokines from whole blood following lipopolysaccharide (LPS) induced inflammatory reaction. Whole blood was incubated with compounds for 1 h prior to LPS induction. Cytokine levels in blood were measured using a multiplex FACS-based panel.
(§2) IC50 values determined for the tested compounds expressed in microM [μM] and the values for the inhibition of cytokines were listed for each compound.
(§3) Effect on cytokines release after LPS induction was performed on the compounds dissolved in DMSO or H2O to reach 10-fold concentrated stock solutions and dissolved in culture media.
(§4) Test system: Whole blood was removed from a single donor (into lithium heparin coated tubes; BD Vacutainer; 367886) and diluted 1:5 with RPMI 1640 (Thermo Fisher, 61870036). Within 30 minutes of sampling, blood was incubated with compounds for 1 h prior to LPS stimulation (O111:B4—Sigma L4391; 10 ng/ml final concentration). Stimulation continued under standard cell culture conditions (37° C. with 5% CO2) overnight (18 h), after which plates were centrifuged and supernatant removed and frozen at −80° C. until used for analyses.
(§5) Dilution of test compounds: 10×concentrated solutions (concerning to the final assay concentrations) of each test compound were prepared with the appropriate solvent (in DMSO or in water). These 10× compound solutions (10 μl) were then added to 90 μl pre-diluted whole blood (whole blood: RPMI1640, 1:5) resulting in the final assay concentration.
(§6) Test method: Diluted whole blood (80 μl) was pre-incubated with compounds (10 μl) to give final assay concentrations of 100, 30, 10, 3, 1, 0.3 and 0.1×10^−6M. Blood was incubated at 37° C. with 5% CO2 for 1 h. LPS was diluted in cell culture media to a concentration of […]; 10 μl was added to the whole blood to give a final concentration of 10 ng/ml. Plates were incubated at 37° C. for 18 h. Plates were centrifuged at 3,000 RPM for 5 minutes at 4° C. and supernatant removed and frozen at −80° C. until FACS analysis was carried out.
(§7) Cytokine release was measured using a custom multiplex system (ELISA Genie) according to manufacturers instructions. Prepared samples were run on an Attune NxT flow cytometer (Thermo Fisher).
(§8) Quantification of cytokine release inhibition: known concentration standards were run as part of the cytokine panel to allow quantification of each cytokine concentration in each sample. This was carried out using FCAP Array v3.0 software.
(§9) Results: The dose response relationship on cytokine release following LPS induction of inflammatory response in whole blood was assessed for all compounds. IC50 values were determined for each compound for a panel of cytokines (GM-CSF, IFN-gamma, IL-1beta, IL-2, IL-4, IL-5, IL-6, IL-8, IL-9, IL-10, IL-12p40, IL-13, IL-17A, IL-17F, IL-18, IL-21, IL-22, IL-33, TGF-beta, TNF-alpha, TNF-beta).

IL-4 = test: Cytokine release after LPS induction on human whole blood: IL-4
Method: as §1, §2, §3, §4, §5, §6, §7, §8, §9

IL-18 = test: Cytokine release after LPS induction on human whole blood: IL-18
Method: as §1, §2, §3, §4, §5, §6, §7, §8, §9

IL-33 = test: Cytokine release after LPS induction on human whole blood: IL-33
Method: as §1, §2, §3, §4, §5, §6, §7, §8, §9

TGF-beta = test: Cytokine release after LPS induction on human whole blood: TGFβ
Method: as §1, §2, §3, §4, §5, §6, §7, §8, §9

TNF-alpha = test: Cytokine release after LPS induction on human whole blood: TNFα
Method: as §1, §2, §3, §4, §5, §6, §7, §8, §9

[3] = Homo sapiens, LPS 10 ng/ml, 18 h, read-out: Whole Blood: GM-CSF IC50
[4] = human whole blood, inhibition of LPS induced inflammation, read-out: IC50 GM-CSF
[5] = Homo sapiens, LPS 10 ng/ml, 18 h, read-out: Whole Blood: IL-4 IC50
[6] = human whole blood, inhibition of LPS induced inflammation, read-out: IC50 IL-4
[7] = Homo sapiens, LPS 10 ng/ml, 18 h, read-out: Whole Blood: IL-18 IC50
[8] = human whole blood, inhibition of LPS induced inflammation, read-out: IC50 IL-18
[9] = Homo sapiens, LPS 10 ng/ml, 18 h, read-out: Whole Blood: IL-33 IC50
[10] = human whole blood, inhibition of LPS induced inflammation, read-out: IC50 IL-33
[11] = Homo sapiens, LPS 10 ng/ml, 18 h, read-out: Whole Blood: TGFβ IC50
[12] = human whole blood, inhibition of LPS induced inflammation, read-out: IC50 TGFbeta
[13] = Homo sapiens, LPS 10 ng/ml, 18 h, read-out: Whole Blood: TNF α IC50
[14] = human whole blood, inhibition of LPS induced inflammation, read-out: IC50 TNFa

SMILES | pIC50 (Human neutrophils [1]) | pIC50 (GM-CSF; [3]) | pIC50 (GM-CSF; [4]) | pIC50 (IL-4; [5]) | pIC50 (IL-4; [6]) | pIC50 (IL-18; [7]) | pIC50 (IL-18; [8]) | pIC50 (IL-33; [9]) | pIC50 (IL-33; [10]) | pIC50 (TGF-beta; [11]) | pIC50 (TGF-beta; [12]) | pIC50 (TNF-alpha; [13]) | pIC50 (TNF-alpha; [14]) | inhibition at 0.3 µM (Human neutrophils [1]) | Neutrophil adhesion inhibition (Human neutrophils [2])
O=C(O)c1cc(O)cc(CS(=O)(=O)Cc2cc(O)cc(C(=O)O)c2O)c1O [IVc-059a, 3-((2,5-Dihydroxy-3-carboxyphenyl)methylsulfonylmethyl)-2,5-dihydroxybenzoic acid] | 6.83 | < 4.00 | 4.00 | < 4.00 | 4.00 | < 4.00 | 4.00 | 4.56 | 4.56 | < 4.00 | 4.00 | 6.80 | 6.80 | 74% | 10%
COC(=O)c1cc(OC(C)=O)cc(CS(=O)(=O)Cc2cc(OC(C)=O)cc(C(=O)OC)c2OC(C)=O)c1OC(C)=O [IVc-059a-E2-A4] | 5.38 | 5.74 | 5.74 | < 4.00 | 4.00 | < 4.00 | 4.00 | 4.63 | 4.63 | < 4.00 | 4.00 | 6.52 | 6.52 | 29.2% | 87.5%
O=C(O)c1cc(O)c(C(=O)Nc2ccccc2C(=O)O)cc1O [Ia-001a, 4-(2-carboxyphenylaminocarbonyl)-2,5-dihydroxybenzoic acid] | 6.45 | < 4.00 | 4.00 | < 4.00 | 4.00 | < 4.00 | 4.00 | 4.71 | 4.71 | < 4.00 | 4.00 | 7.70 | 7.70 | 48% | 44.3%

Second part, led by results:

pIC50 (Human neutrophils [1]) | pIC50 (GM-CSF; [3]) | pIC50 (GM-CSF; [4]) | pIC50 (IL-4; [5]) | pIC50 (IL-4; [6]) | pIC50 (IL-18; [7]) | pIC50 (IL-18; [8]) | pIC50 (IL-33; [9]) | pIC50 (IL-33; [10]) | pIC50 (TGF-beta; [11]) | pIC50 (TGF-beta; [12]) | pIC50 (TNF-alpha; [13]) | pIC50 (TNF-alpha; [14]) | SMILES | inhibition at 0.3 µM (Human neutrophils [1]) | Neutrophil adhesion inhibition (Human neutrophils [2])
5.81 | < 4.00 | 4.00 | < 4.00 | 4.00 | < 4.00 | 4.00 | 4.63 | 4.63 | < 4.00 | 4.00 | 6.20 | 6.20 | O=C(O)c1cc(O)c(C(=O)Nc2ccccc2-c2nnn[nH]2)cc1O [Ia-001a-Tz, 4-(2-(1H-tetrazol-5-yl)phenyl-aminocarbonyl)-2,5-dihydroxybenzoic acid] | 54.3% | 69.75%
5.62 | < 4.00 | 4.00 | < 4.00 | 4.00 | < 4.00 | 4.00 | < 4.00 | 4.00 | < 4.00 | 4.00 | 7.30 | 7.30 | O=C(O)c1cc(O)c(C(=O)Nc2ccccc2S(=O)(=O)O)cc1O [Ia-001c, 2,5-dihydroxy-4-(2-sulfophenylaminocarbonyl)benzoic acid] | 40.4% | 31.33%
5.60 | < 4.00 | 4.00 | < 4.00 | 4.00 | < 4.00 | 4.00 | 4.14 | 4.14 | < 4.00 | 4.00 | 6.74 | 6.74 | O=C(O)c1cc(O)c(C(=O)Nc2ccc(-c3nnn[nH]3)cc2)cc1O [Ia-003a-Tz, 4-(4-(1H-tetrazol-5-yl)phenyl-aminocarbonyl)-2,5-dihydroxybenzoic acid] | 62.2% | 30.33%
6.41 | 5.56 | 5.56 | < 4.00 | 4.00 | < 4.00 | 4.00 | 6.62 | 6.62 | < 4.00 | 4.00 | 6.77 | 6.77 | O=C(O)c1cc(NC(=O)c2cc(O)c(C(=O)O)cc2O)cc(C(=O)O)c1 [Ia-015a, 5-(4-carboxy-2,5-dihydroxybenzamido)isophthalic acid] | 43.8% | 17.38%
5.97 | < 4.00 | 4.00 | < 4.00 | 4.00 | < 4.00 | 4.00 | 4.50 | 4.50 | < 4.00 | 4.00 | 6.51 | 6.51 | O=C(O)c1cc(NC(=O)c2cc(O)c(C(=O)O)cc2O)cc(NC(=O)c2cc(O)c(C(=O)O)cc2O)c1 [Ib-010a, 3,5-bis(2,5-dihydroxy-4-carboxybenzoylamino)benzoic acid] | 71.8% | 1.5%
